From patent US11845724B2, “USP30 inhibitors and uses thereof” (Vincere Biosciences, Inc., priority 2019, dated 2023) come the findings set out here.

Like-named read-outs stand apart in the source and are kept apart here.

The target of assay [1] is recombinant USP30 (amino acids 57-517 of the human sequence) (Homo sapiens (Human), UniProt Q70CQ3). Nature of the assay: In vitro USP30 biochemical assay (Ubiquitin-Rhodamine).
The target in assay [2] is USP30 (Homo sapiens (Human), UniProt Q70CQ3). Nature of the assay: Dundee MALDI-TOF mass spectrometry assay (IC50). The format is biochemical. The note with it: USP30 25 ng/μl, K48-linked diubiquitin 5.6 μM, avg, read-out: Dundee IC50 μM (avg in vitro MS assay). The protocol: Compounds were tested in a MALDI-TOF assay based on the paper by Ritorto et al. (Ritorto et al. Screening of DUB activity and specificity by MALDI-TOF mass spectrometry. Nat. […] USP30 (25 ng/μl) tested against K48-linked diubiquitin (5.6 μM). USP30 was diluted in a buffer containing 40 mM Tris, 0.01% BSA, 1 mM DTT and K48 in 40 mM Tris, 0.01% BSA. The compounds were pre-incubated with the USP30 for 5 mins at room temp before the K48 dimer addition. The assay mixture was then incubated for 45 mins at room temp. The assay was stopped by the addition of TFA to a final concentration of 2% (v/v). […] Then 250 nl of these solutions were spotted onto an MTP AnchorChip 1,536 TF and this is analysed on the Bruker rapifleX MALDI-TOF.
Sequence of USP30 (Q70CQ3 whole entry): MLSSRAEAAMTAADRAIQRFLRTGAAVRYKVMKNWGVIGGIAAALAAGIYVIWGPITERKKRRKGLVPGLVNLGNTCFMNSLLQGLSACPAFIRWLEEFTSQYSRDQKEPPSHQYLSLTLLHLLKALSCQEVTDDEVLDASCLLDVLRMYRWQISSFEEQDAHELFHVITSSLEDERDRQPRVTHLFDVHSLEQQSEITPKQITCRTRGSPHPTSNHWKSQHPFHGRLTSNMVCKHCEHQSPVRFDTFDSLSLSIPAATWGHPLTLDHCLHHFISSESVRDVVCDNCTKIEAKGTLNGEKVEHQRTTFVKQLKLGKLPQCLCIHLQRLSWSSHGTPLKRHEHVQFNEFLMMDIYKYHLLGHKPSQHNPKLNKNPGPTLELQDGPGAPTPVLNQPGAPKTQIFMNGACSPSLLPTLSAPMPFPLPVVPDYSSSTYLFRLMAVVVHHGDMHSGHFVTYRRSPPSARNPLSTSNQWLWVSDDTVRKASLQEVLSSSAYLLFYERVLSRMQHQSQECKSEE

The mark [3] stands for this setting: USP30 IC50 μM (avg), Ubiquitin-Rhodamine substrate 25 nM, 1.5 nM recombinant USP30.
Where [4] appears, read: read-out: USP30 IC50 μM (avg), Ubiquitin-Rhodamine substrate 25 nM, 1.5 nM recombinant USP30.

Broadly, the IC50 is the point on the concentration scale where inhibition reaches its midpoint.

Sequence of recombinant USP30 (amino acids 57-517 of the human sequence) (Q70CQ3 57-517): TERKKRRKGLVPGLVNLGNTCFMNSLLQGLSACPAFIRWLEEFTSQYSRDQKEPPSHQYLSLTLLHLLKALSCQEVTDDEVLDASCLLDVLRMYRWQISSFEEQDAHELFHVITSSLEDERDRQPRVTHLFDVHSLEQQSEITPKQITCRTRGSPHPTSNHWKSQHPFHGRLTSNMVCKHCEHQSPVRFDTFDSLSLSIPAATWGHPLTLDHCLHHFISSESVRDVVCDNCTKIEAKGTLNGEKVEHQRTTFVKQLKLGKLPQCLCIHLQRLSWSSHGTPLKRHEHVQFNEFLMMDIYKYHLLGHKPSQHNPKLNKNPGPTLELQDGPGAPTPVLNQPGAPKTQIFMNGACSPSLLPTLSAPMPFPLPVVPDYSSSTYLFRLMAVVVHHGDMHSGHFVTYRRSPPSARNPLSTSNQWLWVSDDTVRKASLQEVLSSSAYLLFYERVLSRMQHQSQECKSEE

Turning to `COc1cc(NC(=O)[C@H](Cc2ccccc2)NC(=O)c2ccc(F)cc2)ccc1S(=O)(=O)NC1CCOCC1` [Compound I-150, (S)-4-fluoro-N-(1-(3-methoxy-4-(N-(tetrahydro-2H-pyran-4-yl)sulfamoyl)phenylamino)-1-oxo-3-phenylpropan-2-yl)benzamide], the IC50 is 0.05 to 1 µM in assay [1] (setting [3]) and less than 0.05 µM in assay [2].
`CC(C)(CF)NS(=O)(=O)c1ccc(NC(=O)[C@H](Cc2ccccc2)NC(=O)c2ccc(F)cc2)cc1` [Compound I-10, (S)-4-Fluoro-N-(1-(4-(N-(1-fluoro-2-methylpropan-2-yl)sulfamoyl)phenylamino)-1-oxo-3-phenylpropan-2-yl)benzamide]: the IC50 in assay [1] (setting [4]) and in assay [2] was less than 0.05 µM each time.
In the case of `COCC(C)(C)NS(=O)(=O)c1ccc(NC(=O)[C@H](Cc2ccccc2)NC(=O)c2ccc(F)cc2)cc1` [Compound I-134, (S)-4-fluoro-N-(1-(4-(N-(1-methoxy-2-methylpropan-2-yl)sulfamoyl)phenylamino)-1-oxo-3-phenylpropan-2-yl)benzamide], the IC50 in assay [1] (setting [4]) and in assay [2] was less than 0.05 µM each time.
For the compound `COCCNS(=O)(=O)c1ccc(NC(=O)[C@H](Cc2ccccc2)NC(=O)c2ccc(F)cc2)cc1` [Compound I-132, (S)-4-fluoro-N-(1-(4-(N-(2-methoxyethyl)sulfamoyl)phenylamino)-1-oxo-3-phenylpropan-2-yl)benzamide], the IC50 is 0.05 to 1 µM in assay [1] (setting [3]) and less than 0.05 µM in assay [2].
On the same counts, the results for `O=C(N[C@@H](Cc1ccccc1)C(=O)Nc1ccc(S(=O)(=O)NC2CCCC2)cc1)c1ccc(F)cn1` [Compound I-74, (S)-N-(1-(4-(N-cyclopentylsulfamoyl)phenylamino)-1-oxo-3-phenylpropan-2-yl)-5-fluoropicolinamide] are 0.05 to 1 µM and 0.05 to 1 µM.
As to `O=C(N[C@@H](Cc1ccccc1)C(=O)Nc1ccc(S(=O)(=O)NC23CC(C2)C3)cn1)c1ccc(F)cc1` [Compound I-118, (S)-N-(1-(5-(N-bicyclo[1.1.1]pentan-1-ylsulfamoyl)pyridin-2-ylamino)-1-oxo-3-phenylpropan-2-yl)-4-fluorobenzamide], the IC50 in assay [1] (setting [3]) and in assay [2] was 0.05 to 1 µM throughout.
With `CCNS(=O)(=O)c1ccc(NC(=O)[C@H](Cc2ccccc2)NC(=O)c2ccc(F)cc2)cc1` [Compound I-5, (S)-N-(1-(4-(N-Ethylsulfamoyl)phenylamino)-1-oxo-3-phenylpropan-2-yl)-4-fluorobenzamide], the IC50 in assay [1] (setting [3]) is 0.05 to 1 µM; in assay [2], less than 0.05 µM.
On the same counts, the results for `O=C(N[C@@H](Cc1ccccc1)C(=O)Nc1ccc(S(=O)(=O)NCCO)cn1)c1ccc(F)cc1` [Compound I-121, (S)-4-fluoro-N-(1-(5-(N-(2-hydroxyethyl)sulfamoyl)pyridin-2-ylamino)-1-oxo-3-phenylpropan-2-yl)benzamide] are 0.05 to 1 µM and 0.05 to 1 µM.
On the same counts, the results for `O=C(N[C@@H](Cc1ccccc1)C(=O)Nc1ccc(S(=O)(=O)NC2CCC2)cc1)c1ccc(F)cn1` [Compound I-75, (S)-N-(1-(4-(N-cyclobutylsulfamoyl)phenylamino)-1-oxo-3-phenylpropan-2-yl)-5-fluoropicolinamide] are 0.05 to 1 µM and 0.05 to 1 µM.
Turning to `COCCNS(=O)(=O)c1ccc(NC(=O)[C@H](Cc2ccccc2)NC(=O)c2ccc(F)cc2)cc1OC` [Compound I-151, (S)-4-fluoro-N-(1-(3-methoxy-4-(N-(2-methoxyethyl)sulfamoyl)phenylamino)-1-oxo-3-phenylpropan-2-yl)benzamide], the IC50 in assay [1] (setting [3]) is 0.05 to 1 µM; in assay [2] it was less than 0.05 µM.
On the same counts, the results for `CC(C)(C)OCCNS(=O)(=O)c1ccc(NC(=O)[C@H](Cc2ccccc2)NC(=O)c2ccc(F)cc2)cc1` [Compound I-135, (S)-N-(1-(4-(N-(2-tert-butoxyethyl)sulfamoyl)phenylamino)-1-oxo-3-phenylpropan-2-yl)-4-fluorobenzamide] are 1 to 10 µM and 0.05 to 1 µM.
As for `O=C(N[C@@H](Cc1ccccc1)C(=O)Nc1ccc(S(=O)(=O)NC2COC2)cn1)c1ccc(F)cc1` [Compound I-119, (S)-4-fluoro-N-(1-(5-(N-oxetan-3-ylsulfamoyl)pyridin-2-ylamino)-1-oxo-3-phenylpropan-2-yl)benzamide], the IC50 in assay [1] (setting [3]) and in assay [2] was 0.05 to 1 µM each time.
As for `COCC(C)(C)NS(=O)(=O)c1ccc(NC(=O)[C@H](Cc2ccccc2)NC(=O)c2ccc(F)cc2)cn1` [Compound I-113, (S)-4-fluoro-N-(1-(6-(N-(1-methoxy-2-methylpropan-2-yl)sulfamoyl)pyridin-3-ylamino)-1-oxo-3-phenylpropan-2-yl)benzamide], the IC50 in assay [1] (setting [3]) and in assay [2] was 0.05 to 1 µM in each case.
Turning to `COCC(C)(C)NS(=O)(=O)c1ccc(NC(=O)[C@H](Cc2ccccc2)NC(=O)c2ccc(F)cc2)cc1OC` [Compound I-149, (S)-4-fluoro-N-(1-(3-methoxy-4-(N-(1-methoxy-2-methylpropan-2-yl)sulfamoyl)phenylamino)-1-oxo-3-phenylpropan-2-yl)benzamide], the IC50 is 0.05 to 1 µM in assay [1] (setting [3]) and less than 0.05 µM in assay [2].
On the same counts, the results for `O=C(N[C@@H](Cc1ccccc1)C(=O)Nc1ccc(S(=O)(=O)NCCN2CCOCC2)nc1)c1ccc(F)cc1` [Compound I-111, (S)-4-fluoro-N-(1-(6-(N-(2-morpholinoethyl)sulfamoyl)pyridin-3-ylamino)-1-oxo-3-phenylpropan-2-yl)benzamide] are 0.05 to 1 µM and 0.05 to 1 µM.
On to `CC(C)(C)NS(=O)(=O)N1CCCc2c(NC(=O)[C@H](Cc3ccccc3)NC(=O)C3CCCCC3)cccc21` [Compound I-129, (S)-N-(1-(1-(N-tert-butylsulfamoyl)-1,2,3,4-tetrahydroquinolin-5-ylamino)-1-oxo-3-phenylpropan-2-yl)cyclohexanecarboxamide], for which the IC50 in assay [1] (setting [3]) and in assay [2] was 1 to 10 µM each time.
For `CN(C(=O)c1ccc(F)cc1)[C@@H](Cc1cccnc1)C(=O)Nc1ccc(S(=O)(=O)NC(C)(C)C)cc1` [Compound I-91, (S)-N-(1-(4-(N-tert-butylsulfamoyl)phenylamino)-1-oxo-3-(pyridin-3-yl)propan-2-yl)-4-fluoro-N-methylbenzamide], the IC50 in assay [1] (setting [3]) and in assay [2] was 0.05 to 1 µM each time.
Consider `O=C(N[C@@H](Cc1ccccc1)C(=O)Nc1ccc(S(=O)(=O)NC2COC2)cc1)c1cccc(F)c1` [Compound I-94, (S)-3-fluoro-N-(1-(4-(N-oxetan-3-ylsulfamoyl)phenylamino)-1-oxo-3-phenylpropan-2-yl)benzamide], for which the IC50 in assay [1] (setting [3]) and in assay [2] was 0.05 to 1 µM each time.
Consider `COc1cc(NC(=O)[C@H](Cc2ccccc2)NC(=O)c2ccc(F)cc2)ccc1S(=O)(=O)NC12CC(C1)C2` [Compound I-148, (S)-N-(1-(4-(N-bicyclo[1.1.1]pentan-1-ylsulfamoyl)-3-methoxyphenylamino)-1-oxo-3-phenylpropan-2-yl)-4-fluorobenzamide], for which the results for the IC50 in assay [1] (setting [3]) and in assay [2] were 0.05 to 1 µM and less than 0.05 µM, respectively.
On the same counts, the results for `O=C(N[C@@H](Cc1ccccc1)C(=O)Nc1ccc(S(=O)(=O)NCC(F)(F)F)cc1)c1ccc(F)cc1` [Compound I-23, (S)-4-fluoro-N-(1-oxo-3-phenyl-1-(4-(N-(2,2,2-trifluoroethyl)sulfamoyl)phenylamino)propan-2-yl)benzamide] are 0.05 to 1 µM and less than 0.05 µM.
For the compound `O=C(N[C@@H](Cc1ccccn1)C(=O)Nc1ccc(S(=O)(=O)NC23CC(C2)C3)cc1)c1ccc(F)cc1` [Compound I-141, (S)-N-(1-(4-(N-bicyclo[1.1.1]pentan-1-ylsulfamoyl)phenylamino)-1-oxo-3-(pyridin-2-yl)propan-2-yl)-4-fluorobenzamide], the IC50 in assay [1] (setting [3]) and in assay [2] was 0.05 to 1 µM in each case.
For `COCCNS(=O)(=O)c1ccc(NC(=O)[C@H](Cc2ccccc2)NC(=O)c2ccc(F)cc2)nc1` [Compound I-120, (S)-4-fluoro-N-(1-(5-(N-(2-methoxyethyl)sulfamoyl)pyridin-2-ylamino)-1-oxo-3-phenylpropan-2-yl)benzamide], the 50% inhibitory concentration (IC50) in assay [1] (setting [3]) and in assay [2] was 0.05 to 1 µM in each case.
For `O=C(N[C@@H](Cc1ccccc1)C(=O)Nc1ccc(S(=O)(=O)NC2CCC2)cc1)c1cccnc1` [Compound I-81, (S)-N-(1-(4-(N-cyclobutylsulfamoyl)phenylamino)-1-oxo-3-phenylpropan-2-yl)nicotinamide], the IC50 in assay [1] (setting [3]) and in assay [2] was 0.05 to 1 µM throughout.
Take `CCNS(=O)(=O)c1cccc2c(NC(=O)[C@H](Cc3ccccc3)NC(=O)c3ccc(F)cc3)cccc12` [Compound I-125]: the IC50 in assay [1] (setting [3]) was 0.05 to 1 µM; in assay [2], less than 0.05 µM.
As for `CC(C)(C)NS(=O)(=O)c1ccc(NC(=O)[C@H](Cc2ccccc2)NC(=O)c2ccc(F)cn2)cc1` [Compound I-85, (S)-N-(1-(4-(N-tert-butylsulfamoyl)phenylamino)-1-oxo-3-phenylpropan-2-yl)-5-fluoropicolinamide], the IC50 in assay [1] (setting [4]) was less than 0.05 µM; in assay [2] it was 0.05 to 1 µM.
Consider `CC(C)(C)NS(=O)(=O)c1ccc(NC(=O)[C@H](Cc2ccccc2)NC(=O)c2cccc(F)c2)cc1` [Compound I-88, (S)-N-(1-(4-(N-tert-butylsulfamoyl)phenylamino)-1-oxo-3-phenylpropan-2-yl)-3-fluorobenzamide], for which the IC50 is 0.05 to 1 µM in assay [1] (setting [3]) and less than 0.05 µM in assay [2].
